Patent publication US9499493B2, “2,4-pyrimidinediamine compounds and their uses” (Rigel Pharmaceuticals, Inc., priority 2002, dated 2016)
Like-named read-outs stand apart in the source and are kept apart here.

Legend:
[1] = Exposure to skin and eyes; details: in vivo
From the text: (§1) A short discussion of key toxicology studies is provided.

[2] = test system: IgE-induced degranulation of tissue mast cells; experiment: Mouse model of passive cutaneous anaphylaxis (PCA); type: in vivo; details: for % Inhibition (PCA) / Plasma level: PO
Description: (§2) This model provides a direct measure of IgE-induced degranulation of tissue mast cells. In this model, IgE primed animals are exposed to an allergen challenge, and the change in permeability of dermal vasculature that results from histamine release from mast cells is measured by change in the amount of dye leakage into surrounding tissue. Inhibition of mediator release by compounds that modulate mast cell degranulation is easily measured by extracting the dye from the tissue.
(§3) In the PCA assay mice are passively sensitized by intradermal injection with anti-dinitrophenol (DNP) IgE antibodies (Day −1). At predetermined times animals are treated with the test agent (Day 0). The modulatory effect of the agent on cutaneous mast cell degranulation is measured following intravenous injection of DNP conjugated to human serum albumin (HSA-DNP), together with Evans blue dye. The resulting cross-linking of the IgE receptor and subsequent mast cell degranulation-induced increase in vascular permeability is determined by measuring the amount of dye extravasation into the tissue. Dye is extracted from the tissue by formamide, and the absorbance of this extract is read at 620 nm.

[3] = Sheep model of allergic asthma (Ascaris suum challenge); type: in vivo
Description: Sheep develop bronchoconstriction within minutes of exposure to inhaled antigen (Ascaris suum), with maximal airflow obstruction during the early allergic response (EAR). Release of preformed mast cell mediators is likely responsible for this early phase of airflow obstruction. […] In the sheep, AHR develops a few hours following antigen challenge, and can persist for up to 2 weeks.
In the sheep model of allergic asthma, sheep are administered aerosols of test article via an endotracheal tube, followed by an aerosol challenge with antigen extracted from the roundworm, Ascaris suum, to which the sheep are naturally allergic. Allergen challenge leads to direct bronchoconstriction (both EAR and LAR) and a persistent non-specific AHR. These three characteristics are similar to those seen in human allergic asthmatics. The activity of the test agent is determined by changes in the lung resistance (RL), which is calculated from measurements of transpulmonary pressure, flow, and respiratory volume. […] The LAR is a less pronounced increase in RL, which starts approximately 5-6 hours following allergen challenge and is resolved by 8 hours post-challenge. Twenty-four hours after the challenge, a dose response to carbachol is measured to determine the AHR, which is expressed as the dose of carbachol required to increase RL by 400% over baseline. (This measurement is referred to as the provocative concentration of carbachol that elicits a 400% increase in RL over baseline (PC400). The data are compared to historical control data for the same individual when administered a saline control aerosol and challenged with Ascaris suum.

[4] = Immediacy (time course) of inhibitory activity; type: cell-based; details: FIG. 5
[5] = 14-day repeat-dose intranasal toxicity study in New Zealand White rabbits; type: in vivo
Description: A 14-day repeat-dose intranasal toxicity study in New Zealand White rabbits was performed at doses of 1.7, 3.4 or 5.0 mg/kg/day. In life parameters included: clinical observations, body weights, food consumption, ophthalmology, hematology, clinical chemistry, gross necropsy, organ weights, toxicokinetic assessments and histopathology (including the nasal cavity).

[6] = Core safety pharmacology battery (cardiovascular, respiratory, central nervous system function); details: in vivo
From the text: as §1

[7] = test system: FcγRI-mediated degranulation; experiment: FcγRI receptor-mediated degranulation (activation with anti-human IgG Fab fragment); type: cell-based; details: cells not primed with IgE, activated with rabbit anti-human IgG Fab fragment
[8] = 14-day repeat-dose intranasal toxicity study in Cynomolgus monkeys; type: in vivo
Description: A 14-day repeat-dose intranasal toxicity study in Cynomolgus monkeys was performed at doses of 2.1, 4.5 or 6.3 mg/kg/day. In life parameters included: clinical observations, body weights, food consumption, ophthalmology, blood pressure, electrocardiography, hematology, clinical chemistry, urinalysis, immunotoxicological assessment, gross necropsy, organ weights, toxicokinetic assessments and histopathology (including the nasal cavity).

Syk kinase = Syk kinase (Homo sapiens (Human), UniProt P43405); experiment: Isolated Syk kinase: phosphorylation of a peptide substrate or endogenous substrate (LAT); details: increasing concentrations; FIG. 8
CHMC cells [9] = experiment: anti-IgE-induced calcium ion flux in CHMC cells; type: cell-based, human; details: 10 μM compound
[10] = 14-day repeat-dose toxicity studies (summary of non-clinical safety program); type: in vivo, rabbits and primates; mice and rats
From the text: as §1

[11] = Genetic toxicology testing
From the text: as §1

CHMC cells [12] = experiment: Phosphorylation of proteins downstream of Syk / LYN kinase in the FcεRI cascade, activated CHMC cells; type: cell-based, human; details: varying concentrations, FIG. 10
BMMC cells = experiment: Phosphorylation of proteins downstream of Syk kinase in the IgE receptor cascade, activated BMMC cells; type: cell-based, mouse; details: varying concentrations, FIG. 7
CHMC cells [13] = experiment: ionomycin-induced calcium ion flux in CHMC cells; type: cell-based, human; details: 10 μM compound
[14] = type: in vivo; details: rat, 50, 150 and 300 mg/kg
[15] = Mouse model of passive cutaneous anaphylaxis (PCA); type: in vivo; details: mouse, plasma, PO, 1.5% Avicel/water, 200 mg/kg, read-out: Plasma level (duration of action)
Description: as §2, §3

[16] = mouse, in vivo
in vivo = details: mouse, po
[17] = in vitro chromosomal aberration assay
[18] = Pharmacokinetics / oral bioavailability in rats; type: in vivo; details: rat, in vivo
Description: Over 50 2,4-pyrimidinediamine compounds of the invention were tested for oral bioavailability. For the study, compounds were dissolved in various vehicles (e.g. PEG 400 solution and CMC suspension) for intravenous and oral dosing in the rats. Following administration of the drug, plasma samples were obtained and extracted. The plasma concentrations of the compounds were determined by high performance liquid chromatography/tandem mass spectrometry (LC/MS/MS) methods. Pharmacokinetic analyses were performed based on the plasma concentration data. The pharmacokinetic parameters of interest include Clearance (CL), Volume of distribution at steady-state (Vss), terminal half-life (t1/2), and oral bioavailability (% F).

[19] = test system: Salmonella-Escherichia coli tester strains; details: Salmonella / Escherichia coli
[20] = 67% PEG/33% citrate buffer, pretreatment 10 min, 50 mg/kg
[21] = 67% PEG/33% citrate buffer, pretreatment 10 min, 100 mg/kg
[22] = 67% PEG/33% citrate buffer, pretreatment 10 min, 200 mg/kg
[23] = 30 mg/sheep, pretreatment 15 min, 10% ethanol

## Oc1cccc(Nc2ncc(F)c(Nc3cccc(O)c3)n2)c1 [R921218, N2,N4-Bis(3-hydroxyphenyl)-5-fluoro-2,4-pyrimidinediamine]
[1]
  effects after exposure to skin and eyes: nor were there untoward effects
[2]; [20]
  % Inhibition (PCA): 7%
  Plasma level: 3 µg/mL
[2]; [21]
  % Inhibition (PCA): 11%
  Plasma level: 4 µg/mL
[2]; [22]
  % Inhibition (PCA): 50%
  Plasma level: 18 µg/mL
[2]; solution (67% PEG/33% citrate buffer) or aqueous suspension (1.5% Avicel)
  FcεR-mediated vascular leakage with increasing doses (in words): dose-dependent inhibition
[3]; [23]
  AHR (% inhibition): 101%
  EAR (% inhibition): 66%
  LAR (% inhibition): 78%
[3]; aqueous suspension
  EAR (in words): failed to inhibit
[4]
  onset of inhibitory activity: immediacy of the inhibitory activity
[5]; intranasal 1.7, 3.4 or 5.0 mg/kg/day
  adverse findings: no adverse findings
[5]; rabbit, in vivo, inhaled or intranasal, intranasal, New Zealand White rabbits, read-out: NOAEL (no observed adverse effect level)
  NOAEL at 14 days: 5 mg/kg/day
[6]
  findings in core safety pharmacology battery: no adverse findings
[7]
  FcγRI-mediated degranulation (in words): inhibit FcγRI-mediated degranulation
[8]; cynomolgus monkey, in vivo, inhaled or intranasal, intranasal, Cynomolgus monkeys, read-out: NOAEL (no observed adverse effect level)
  NOAEL at 14 days: 6.3 mg/kg/day
[8]; intranasal 2.1, 4.5 or 6.3 mg/kg/day
  adverse findings: no adverse findings
Syk kinase
  Syk kinase phosphorylation of a peptide substrate: dose responsive inhibition
  Syk kinase phosphorylation of an endogenous substrate (LAT): dose responsive inhibition
CHMC cells [9]
  anti-IgE-induced Ca2+ flux: inhibited
[10]
  dose limiting toxicity, intranasal route, non-rodents (rabbits and primates): no dose limiting toxicity
  dose limiting toxicity, oral route, rodents (mice and rats): no dose limiting toxicity
[11]
  mutagenic or clastogenic potential: no evidence for mutagenic or clastogenic potential
CHMC cells [12]
  phosphorylation of proteins downstream of Syk kinase: inhibit
BMMC cells
  phosphorylation of various proteins downstream of Syk kinase: inhibit
CHMC cells [13]
  ionomycin-induced Ca2+ flux: no effect

## Nc1cccc(Nc2ncc(F)c(Nc3cccc(N)c3)n2)c1 [R921302, N2,N4-Bis(3-aminophenyl)-5-fluoro-2,4-pyrimidinediamine]
[14]
  tolerability, oral doses for 32 days: appeared to be well tolerated
[2]; 1.5% Avicel/water, pretreatment 60 min, 50 mg/kg
  Plasma level: 25 µg/mL
[2]; 1.5% Avicel/water, pretreatment 60 min, 100 mg/kg
  Plasma level: 38 µg/mL
[2]; 1.5% Avicel/water, pretreatment 60 min, 150 mg/kg
  Plasma level: 64 µg/mL
[2]; 1.5% Avicel/water, pretreatment 60 min, 200 mg/kg
  Plasma level: 105 µg/mL
[2]; mouse, in vivo
  time prior to antigen-induced receptor signaling over which vascular permeability was inhibited before efficacy began to decrease: 1 to 2 h
[15]; pretreatment 30 min
  concentration at 30 min: 88 µg/mL
[15]; pretreatment 60 min
  concentration at 60 min: 53 µg/mL
[15]; pretreatment 120 min
  concentration at 120 min: 61 µg/mL
[15]; pretreatment 240 min
  concentration at 240 min: 8 µg/mL
[16]
  oral dose tolerated for up to 7-days: 1000 mg/kg
[16]; 100 mg/kg
  tolerability, 28-day oral toxicity study: appeared to be well tolerated
[16]; 300 mg/kg
  tolerability, 28-day oral toxicity study: not tolerated
[7]
  FcγRI-mediated degranulation (in words): inhibit FcγRI-mediated degranulation
In vivo
  NOAEL at 14 days: 100 mg/kg
[17]
  clastogenic potential: not clastogenic
[18]
  metabolic stability in pharmacokinetics studies (in words): most metabolically stable compound
[19]
  Ames test result: test positive in tester strain TA98 with S9 and TA1537, with and without metabolic activation
